Reference: ChEMBL document CHEMBL4393741, “Novel epidithiodiketopiperazines as anti-viral zinc ejectors of the Feline Immunodeficiency Virus (FIV) nucleocapsid protein as a model for HIV infection” (Bioorg Med Chem, 2019)

Key:
[1] = Acute cytotoxicity against cat CRFK cells assessed as decrease in cell viability at 10 uM measured after 24 hrs by MTT assay relative to control; assay type: cell-based, Felis catus
[2] = Chronic cytotoxicity against cat FL-4 cells assessed as decrease in cell viability measured after 7 days by MTT assay; assay type: cell-based, Felis catus
[3] = test system: Feline immunodeficiency virus; assay: Antiviral activity against FIV infected in cat FL-4 cells assessed as reduction in viral RNA level measured after 7 days by qRT-PCR analysis; assay type: functional, organism-based; details: FL-4, 168 h
[4] = Therapeutic index, ratio of CC50 for cat FL-4 cells to EC50 for antiviral activity against FIV infected in cat FL-4 cells; assay type: toxicity, cell-based; details: read-out: Ratio CC50/EC50
[5] = Solubility of the compound; assay type: physicochemical
[6] = Aqueous solubility of the compound; assay type: physicochemical; details: buffer

Row | SMILES | EC50 [3] [nM] | solubility [5] | solubility [6] | Activity [1] [%] | CC50 at 168 h [2] [nM] | selectivity ratio [4]
1 | CN1C(=O)[C@]2(Cc3ccccc3)SS[C@@]1(CO)C(=O)N2C | – | – | – | 74 | – | –
2 | O=C1[C@H](S)N(Cc2ccccc2)C(=O)[C@H](S)N1Cc1ccccc1 | 1800 | – | – | > 100 | 15000 | –
3 | O=C1[C@@H]2SS[C@@H](C(=O)N2Cc2ccccc2)N1Cc1ccccc1 (racemic) | 3900 to 4000 | – | – | > 100 | 4700 | 1.2
4 | CN1C(=O)[C@@H]2SS[C@H]1C(=O)N2C (racemic) | 3000 | Insoluble | – | 77 | > 10000 | > 3
5 | C=CC[C@@]12SS[C@@H](C(=O)N1Cc1ccccc1)N(Cc1ccccc1)C2=O (racemic) | 88 | – | – | > 100 | 6000 | 69
6 | O=C1[C@@H]2SS[C@@H](C(=O)N2Cc2cccc3ccccc23)N1Cc1ccccc1 (racemic) | 1900 | – | – | > 100 | 7200 | 4
7 | C=CCN1C(=O)[C@@H]2SS[C@@]1(CC=C)C(=O)N2Cc1ccccc1 (racemic) | > 10000 | – | Insoluble | > 100 | > 100000 | –
8 | C=CCN1C(=O)[C@@H]2SS[C@@]1(Cc1ccccc1)C(=O)N2Cc1ccccc1 (racemic) | 110 | – | – | 85 | 720 | 6.7
9 | COc1ccc(CN2C(=O)[C@@H]3SS[C@H]2C(=O)N3Cc2ccccc2)cc1 (racemic) | 410 | – | – | 99 | 5400 | –
10 | C=CCN1C(=O)[C@]2(CC=C)SS[C@@]1(CC=C)C(=O)N2CC=C (racemic) | 880 | – | – | 99 | 8800 | 10
11 | C=CCN1C(=O)[C@]2(Cc3ccccc3)SS[C@H]1C(=O)N2Cc1ccccc1 (racemic) | 890 | – | – | > 100 | 79000 | 88
12 | CN1C(=O)[C@@]23C[C@]4([C@]56C[C@@]78SS[C@@](CO)(C(=O)N7[C@H]5Nc5ccccc56)N(C)C8=O)c5ccccc5N[C@@H]4N2C(=O)[C@]1(CO)SS3 [CHAETOCIN] | 1.7 | – | – | 11 | 3.5 | 2.1
13 | CN1C(=O)[C@]23CC4=CC=C[C@H](O)[C@H]4N2C(=O)[C@@]1(CO)SS3 [GLIOTOXIN] | – | – | – | 6.1 | – | –

Further lines, with some results ahead:

Row | EC50 [3] [nM] | solubility [5] | solubility [6] | SMILES | Activity [1] [%] | CC50 at 168 h [2] [nM] | selectivity ratio [4]
14 | 2100 | – | – | C=CCN1C(=O)[C@@H]2SS[C@H]1C(=O)N2Cc1ccccc1 (racemic) | 96 | 5100 | 2.4
15 | 1600 | – | – | CC(C)N1C(=O)[C@@H]2SS[C@H]1C(=O)N2Cc1ccccc1 (racemic) | 50 | 6500 | 4
16 | 34 | Soluble | – | COC(=O)CCCCCN1C(=O)[C@@H]2SS[C@H]1C(=O)N2Cc1ccccc1 (racemic) | > 100 | > 10000 | > 300
17 | 630 | – | – | CCCCN1C(=O)[C@@H]2SS[C@H]1C(=O)N2Cc1ccccc1 (racemic) | 63 | > 10000 | > 16
18 | 910 | – | – | CN1C(=O)[C@@H]2SS[C@H]1C(=O)N2Cc1ccccc1 (racemic) | > 100 | > 10000 | > 11
19 | 550 | – | – | O=C1[C@@H]2SS[C@@H](C(=O)N2Cc2cccc(Cl)c2)N1Cc1ccccc1 (racemic) | > 100 | > 100000 | > 184
20 | 160 | Soluble | – | CCOC(=O)CCCN1C(=O)[C@@H]2SS[C@H]1C(=O)N2Cc1ccccc1 (racemic) | > 100 | 7500 | 48
21 | 53 | Soluble | – | CCOC(=O)CCN1C(=O)[C@@H]2SS[C@H]1C(=O)N2Cc1ccccc1 (racemic) | > 100 | > 10000 | > 190
22 | > 100000 | – | – | CS[C@H]1C(=O)N(Cc2ccccc2)[C@@H](SC)C(=O)N1Cc1ccccc1 (relative stereo) | 96 | > 100000 | –
23 | 10 | – | – | Cc1nnc(C(=O)NC(C)(C)c2nc(C(=O)NCc3ccc(F)cc3)c(O)c(=O)n2C)o1 [RALTEGRAVIR] | > 100 | > 100000 | > 10000
24 | 5300 | – | – | Cc1cn([C@H]2C[C@H](N=[N+]=[N-])[C@@H](CO)O2)c(=O)[nH]c1=O [ZIDOVUDINE] | > 100 | > 100000 | –
